According to the NIST ThermoML archive (doi:10.1016/j.jct.2015.08.014):
± gives the expanded uncertainty stated by the source.

Experiment: xn = mol fraction of the nth substance listed
Conditions: 273.15 K, 100 kPa, Liquid; for electrical conductivity: Alternating current cell with electrodes; for viscosity: Capillary tube (Ostwald / Ubbelohde) method

## CCCC[N+]1(C)CCCC1.N#CN=C=[N-] [1-butyl-1-methylpyrrolidinium dicyanamide] + O=C1CCCO1
x1 = 0.0463
  electrical conductivity: 0.977 ± 0.016 S/m
x1 = 0.0987
  electrical conductivity: 1.43 ± 0.017 S/m
  viscosity: 4.69 ± 0.11 mPa·s
x1 = 0.1449
  electrical conductivity: 1.56 ± 0.016 S/m
x1 = 0.1859
  electrical conductivity: 1.634 ± 0.016 S/m
  viscosity: 7.2 ± 0.16 mPa·s
x1 = 0.2493
  electrical conductivity: 1.517 ± 0.015 S/m
x1 = 0.3029
  electrical conductivity: 1.42 ± 0.015 S/m
  viscosity: 12.03 ± 0.27 mPa·s
x1 = 0.3845
  electrical conductivity: 1.25 ± 0.013 S/m
x1 = 0.4985
  electrical conductivity: 1.03 ± 0.011 S/m
  viscosity: 24.9 ± 0.56 mPa·s
x1 = 0.6954
  electrical conductivity: 0.742 ± 0.008 S/m
  viscosity: 45.65 ± 1 mPa·s
x1 = 0.9013
  electrical conductivity: 0.562 ± 0.006 S/m
  viscosity: 76.07 ± 1.8 mPa·s
x1 = 1
  electrical conductivity: 0.523 ± 0.005 S/m
  viscosity: 93.95 ± 2.3 mPa·s
Frequency=0.0005 MHz, x1 = 0.0463
  electrical conductivity: 0.97 ± 0.016 S/m
Frequency=0.0005 MHz, x1 = 0.0987
  electrical conductivity: 1.41 ± 0.017 S/m
Frequency=0.0005 MHz, x1 = 0.1449
  electrical conductivity: 1.56 ± 0.016 S/m
Frequency=0.0005 MHz, x1 = 0.1859
  electrical conductivity: 1.619 ± 0.016 S/m
Frequency=0.0005 MHz, x1 = 0.2493
  electrical conductivity: 1.513 ± 0.015 S/m
Frequency=0.0005 MHz, x1 = 0.3029
  electrical conductivity: 1.42 ± 0.015 S/m
Frequency=0.0005 MHz, x1 = 0.3845
  electrical conductivity: 1.25 ± 0.013 S/m
Frequency=0.0005 MHz, x1 = 0.4985
  electrical conductivity: 1.03 ± 0.011 S/m
Frequency=0.0005 MHz, x1 = 0.6954
  electrical conductivity: 0.741 ± 0.008 S/m
Frequency=0.0005 MHz, x1 = 0.9013
  electrical conductivity: 0.561 ± 0.006 S/m
Frequency=0.0005 MHz, x1 = 1
  electrical conductivity: 0.522 ± 0.005 S/m
Frequency=0.001 MHz, x1 = 0.0463
  electrical conductivity: 0.973 ± 0.016 S/m
Frequency=0.001 MHz, x1 = 0.0987
  electrical conductivity: 1.42 ± 0.017 S/m
Frequency=0.001 MHz, x1 = 0.1449
  electrical conductivity: 1.56 ± 0.016 S/m
Frequency=0.001 MHz, x1 = 0.1859
  electrical conductivity: 1.625 ± 0.016 S/m
Frequency=0.001 MHz, x1 = 0.2493
  electrical conductivity: 1.515 ± 0.015 S/m
Frequency=0.001 MHz, x1 = 0.3029
  electrical conductivity: 1.42 ± 0.015 S/m
Frequency=0.001 MHz, x1 = 0.3845
  electrical conductivity: 1.25 ± 0.013 S/m
Frequency=0.001 MHz, x1 = 0.4985
  electrical conductivity: 1.03 ± 0.011 S/m
Frequency=0.001 MHz, x1 = 0.6954
  electrical conductivity: 0.741 ± 0.008 S/m
Frequency=0.001 MHz, x1 = 0.9013
  electrical conductivity: 0.561 ± 0.006 S/m
Frequency=0.001 MHz, x1 = 1
  electrical conductivity: 0.522 ± 0.005 S/m
Frequency=0.0015 MHz, x1 = 0.0463
  electrical conductivity: 0.975 ± 0.016 S/m
Frequency=0.0015 MHz, x1 = 0.0987
  electrical conductivity: 1.42 ± 0.017 S/m
Frequency=0.0015 MHz, x1 = 0.1449
  electrical conductivity: 1.56 ± 0.016 S/m
Frequency=0.0015 MHz, x1 = 0.1859
  electrical conductivity: 1.627 ± 0.016 S/m
Frequency=0.0015 MHz, x1 = 0.2493
  electrical conductivity: 1.515 ± 0.015 S/m
Frequency=0.0015 MHz, x1 = 0.3029
  electrical conductivity: 1.42 ± 0.015 S/m
Frequency=0.0015 MHz, x1 = 0.3845
  electrical conductivity: 1.25 ± 0.013 S/m
Frequency=0.0015 MHz, x1 = 0.4985
  electrical conductivity: 1.03 ± 0.011 S/m
Frequency=0.0015 MHz, x1 = 0.6954
  electrical conductivity: 0.741 ± 0.008 S/m
Frequency=0.0015 MHz, x1 = 0.9013
  electrical conductivity: 0.562 ± 0.006 S/m
Frequency=0.0015 MHz, x1 = 1
  electrical conductivity: 0.522 ± 0.005 S/m
Frequency=0.002 MHz, x1 = 0.0463
  electrical conductivity: 0.975 ± 0.016 S/m
Frequency=0.002 MHz, x1 = 0.0987
  electrical conductivity: 1.42 ± 0.017 S/m
Frequency=0.002 MHz, x1 = 0.1449
  electrical conductivity: 1.56 ± 0.016 S/m
Frequency=0.002 MHz, x1 = 0.1859
  electrical conductivity: 1.629 ± 0.016 S/m
Frequency=0.002 MHz, x1 = 0.2493
  electrical conductivity: 1.516 ± 0.015 S/m
Frequency=0.002 MHz, x1 = 0.3029
  electrical conductivity: 1.42 ± 0.015 S/m
Frequency=0.002 MHz, x1 = 0.3845
  electrical conductivity: 1.25 ± 0.013 S/m
Frequency=0.002 MHz, x1 = 0.4985
  electrical conductivity: 1.03 ± 0.011 S/m
Frequency=0.002 MHz, x1 = 0.6954
  electrical conductivity: 0.742 ± 0.008 S/m
Frequency=0.002 MHz, x1 = 0.9013
  electrical conductivity: 0.562 ± 0.006 S/m
Frequency=0.002 MHz, x1 = 1
  electrical conductivity: 0.522 ± 0.005 S/m
Frequency=0.0025 MHz, x1 = 0.0463
  electrical conductivity: 0.976 ± 0.016 S/m
Frequency=0.0025 MHz, x1 = 0.0987
  electrical conductivity: 1.42 ± 0.017 S/m
Frequency=0.0025 MHz, x1 = 0.1449
  electrical conductivity: 1.56 ± 0.016 S/m
Frequency=0.0025 MHz, x1 = 0.1859
  electrical conductivity: 1.63 ± 0.016 S/m
Frequency=0.0025 MHz, x1 = 0.2493
  electrical conductivity: 1.516 ± 0.015 S/m
Frequency=0.0025 MHz, x1 = 0.3029
  electrical conductivity: 1.42 ± 0.015 S/m
Frequency=0.0025 MHz, x1 = 0.3845
  electrical conductivity: 1.25 ± 0.013 S/m
Frequency=0.0025 MHz, x1 = 0.4985
  electrical conductivity: 1.03 ± 0.011 S/m
Frequency=0.0025 MHz, x1 = 0.6954
  electrical conductivity: 0.742 ± 0.008 S/m
Frequency=0.0025 MHz, x1 = 0.9013
  electrical conductivity: 0.562 ± 0.006 S/m
Frequency=0.0025 MHz, x1 = 1
  electrical conductivity: 0.522 ± 0.005 S/m
Frequency=0.003 MHz, x1 = 0.0463
  electrical conductivity: 0.976 ± 0.016 S/m
Frequency=0.003 MHz, x1 = 0.0987
  electrical conductivity: 1.42 ± 0.017 S/m
Frequency=0.003 MHz, x1 = 0.1449
  electrical conductivity: 1.56 ± 0.016 S/m
Frequency=0.003 MHz, x1 = 0.1859
  electrical conductivity: 1.631 ± 0.016 S/m
Frequency=0.003 MHz, x1 = 0.2493
  electrical conductivity: 1.516 ± 0.015 S/m
Frequency=0.003 MHz, x1 = 0.3029
  electrical conductivity: 1.42 ± 0.015 S/m
Frequency=0.003 MHz, x1 = 0.3845
  electrical conductivity: 1.25 ± 0.013 S/m
Frequency=0.003 MHz, x1 = 0.4985
  electrical conductivity: 1.03 ± 0.011 S/m
Frequency=0.003 MHz, x1 = 0.6954
  electrical conductivity: 0.742 ± 0.008 S/m
Frequency=0.003 MHz, x1 = 0.9013
  electrical conductivity: 0.562 ± 0.006 S/m
Frequency=0.003 MHz, x1 = 1
  electrical conductivity: 0.522 ± 0.005 S/m
Frequency=0.00347222 MHz, x1 = 0.0463
  electrical conductivity: 0.977 ± 0.016 S/m
Frequency=0.00347222 MHz, x1 = 0.0987
  electrical conductivity: 1.42 ± 0.017 S/m
Frequency=0.00347222 MHz, x1 = 0.1449
  electrical conductivity: 1.56 ± 0.016 S/m
Frequency=0.00347222 MHz, x1 = 0.1859
  electrical conductivity: 1.632 ± 0.016 S/m
Frequency=0.00347222 MHz, x1 = 0.2493
  electrical conductivity: 1.516 ± 0.015 S/m
Frequency=0.00347222 MHz, x1 = 0.3029
  electrical conductivity: 1.42 ± 0.015 S/m
Frequency=0.00347222 MHz, x1 = 0.3845
  electrical conductivity: 1.25 ± 0.013 S/m
Frequency=0.00347222 MHz, x1 = 0.4985
  electrical conductivity: 1.03 ± 0.011 S/m
Frequency=0.00347222 MHz, x1 = 0.6954
  electrical conductivity: 0.742 ± 0.008 S/m
Frequency=0.00347222 MHz, x1 = 0.9013
  electrical conductivity: 0.562 ± 0.006 S/m
Frequency=0.00347222 MHz, x1 = 1
  electrical conductivity: 0.523 ± 0.005 S/m
Frequency=0.004 MHz, x1 = 0.0463
  electrical conductivity: 0.977 ± 0.016 S/m
Frequency=0.004 MHz, x1 = 0.0987
  electrical conductivity: 1.42 ± 0.017 S/m
Frequency=0.004 MHz, x1 = 0.1449
  electrical conductivity: 1.56 ± 0.016 S/m
Frequency=0.004 MHz, x1 = 0.1859
  electrical conductivity: 1.632 ± 0.016 S/m
Frequency=0.004 MHz, x1 = 0.2493
  electrical conductivity: 1.516 ± 0.015 S/m
Frequency=0.004 MHz, x1 = 0.3029
  electrical conductivity: 1.42 ± 0.015 S/m
Frequency=0.004 MHz, x1 = 0.3845
  electrical conductivity: 1.25 ± 0.013 S/m
Frequency=0.004 MHz, x1 = 0.4985
  electrical conductivity: 1.03 ± 0.011 S/m
Frequency=0.004 MHz, x1 = 0.6954
  electrical conductivity: 0.742 ± 0.008 S/m
Frequency=0.004 MHz, x1 = 0.9013
  electrical conductivity: 0.562 ± 0.006 S/m
Frequency=0.004 MHz, x1 = 1
  electrical conductivity: 0.523 ± 0.005 S/m
Frequency=0.00446429 MHz, x1 = 0.0463
  electrical conductivity: 0.977 ± 0.016 S/m
